Reference: ChEMBL document CHEMBL1151406, “An investigation of the antiviral activity of Podophyllum peltatum” (J Nat Prod, 1982)

What was measured:
Measles morbillivirus [1] = assay: Antiviral activity against measles virus infected in african green monkey Vero cells assessed as inhibition of virus-induced cytopathic effect at 1 uM; type: functional; design: scale not given: the % may be the effect or the level left
Measles morbillivirus [2] = assay: Antiviral activity against measles virus infected in african green monkey Vero cells assessed as cell rounding at 1 uM; type: functional
Vero = assay: Cytotoxicity against african green monkey Vero cells assessed as cell rounding at 1 uM; type: cell-based; details: chlorocebus sabaeus
Human alphaherpesvirus 1 = assay: Antiviral activity against HSV1 infected in african green monkey Vero cells assessed as plaque formation at 1 uM after 4 days by neutral red assay relative to control; type: functional
Measles morbillivirus [3] = assay: Antiviral activity against measles virus infected in african green monkey Vero cells assessed as plaque formation at 1 uM after 5 days by neutral red assay relative to control; type: functional
[4] = Cytotoxicity against african green monkey Vero cells assessed as cell viability at 1 uM by trypan blue exclusion assay; type: cell-based; details: chlorocebus sabaeus, read-out: Activity

| Compound | Activity (Measles morbillivirus [1]) | Activity (Measles morbillivirus [2]) | Activity (Vero) | Activity (Human alphaherpesvirus 1) | Activity (Measles morbillivirus [3]) | viability at 1 µM [4] |
| --- | --- | --- | --- | --- | --- | --- |
| COc1cc([C@@H]2c3cc4c(c(O)c3C[C@H]3COC(=O)[C@@H]32)OCO4)cc(OC)c1O | 25% | >95% | 5% | 31.1% | 47.5% | 91.9% |
| COc1cc([C@@H]2c3cc4c(cc3[C@H](O)[C@H]3COC(=O)[C@@H]23)OCO4)cc(OC)c1OC [AXL-1717] | 100% | 5% | 15% | 84.4% | 41.5% | 89.9% |
| COc1cc([C@@H]2c3cc4c(c(O)c3C[C@H]3COC(=O)[C@@H]32)OCO4)cc(OC)c1OC [BETA-PELTATIN A] | 100% | 50% | 5% | 21.7% | 15.1% | 85.4% |
| COc1cc([C@@H]2c3cc4c(cc3C[C@H]3COC(=O)[C@@H]32)OCO4)cc(OC)c1OC [DESOXYPODOPHYLLOTOXIN] | 70% | 50% | 30% | 16.2% | 19.8% | 90.7% |
| COc1cc([C@@H]2c3cc4c(cc3[C@H](O)[C@H]3COC(=O)[C@H]23)OCO4)cc(OC)c1OC [PODOFILOX] | 25% | >95% | 80% | 11.7% | 0.9% | 91.7% |
